Reference: patent publication US20060111309A1, “Chalcomycin derivatives” (Biofrontera Discovery GmbH, priority 2002, published 2006)
Converted amounts (≈) assume the structure as drawn.

Tests used:
Assay type in all cases: cell-based
[1] = tested on: Mucor miehei; assay: agar diffusion test; conditions: 10 μg/9 mm Ø plate
[2] = tested on: Chlorella sorokiniana; assay: dilution method MIC
[3] = tested on: Stapylococcus aureus; assay: agar diffusion test; conditions: 10 μg/9 mm Ø plate
[4] = tested on: Stapylococcus aureus; assay: dilution method MIC
[5] = tested on: Candida albicans; assay: agar diffusion test; conditions: 10 μg/9 mm Ø plate
[6] = tested on: Bacillus subtillis; assay: agar diffusion test; conditions: 10 μg/9 mm Ø plate
[7] = tested on: Escherichia coli; assay: dilution method MIC
[8] = tested on: Scenedesmus subspicatus; assay: dilution method MIC
[9] = tested on: Escherichia coli; assay: agar diffusion test; conditions: 10 μg/9 mm Ø plate
[10] = tested on: Bacillus subtillis; assay: dilution method MIC

Compound: CO[C@@H]1[C@H](O)[C@@H](C)O[C@@H](OC[C@H]2[C@@H]3O[C@H]3/C=C/C(=O)[C@@](C)(O)C[C@H](C)[C@H](O[C@@H]3O[C@H](C)C[C@H](OC)[C@H]3O)[C@@H](C)/C=C/C(=O)O[C@@H]2C)[C@@H]1OC [1a, Chalcomycin]
- diameter of the inhibition zone, MM [1]: 0 mm
- MIC, CS [2]: 50 µg/mL (≈ 71.3 µM)
- diameter of the inhibition zone, SA [3]: 30 mm
- MIC, SA [4]: 0.39 µg/mL (≈ 0.556 µM)
- diameter of the inhibition zone, CA [5]: 0 mm
- diameter of the inhibition zone, BS [6]: 25 mm
- MIC, EC [7]: >50 µg/mL
- MIC, SS [8]: 50 µg/mL (≈ 71.3 µM)
- diameter of the inhibition zone, EC [9]: 32 mm
- MIC, BS [10]: 6.25 µg/mL (≈ 8.92 µM)

Compound: chalcomycin B [1b]
- diameter of the inhibition zone, MM [1]: 0 mm
- MIC, CS [2]: 50 µg/mL
- diameter of the inhibition zone, SA [3]: 23 mm
- MIC, SA [4]: 0.39 µg/mL
- diameter of the inhibition zone, CA [5]: 0 mm
- diameter of the inhibition zone, BS [6]: 21 mm
- MIC, EC [7]: >50 µg/mL
- MIC, SS [8]: 50 µg/mL
- diameter of the inhibition zone, EC [9]: 28 mm
- MIC, BS [10]: 6.25 µg/mL

Compound: CC[C@H]1OC(=O)[C@H](C)[C@@H](O[C@H]2C[C@@](C)(OC)[C@@H](O)[C@H](C)O2)[C@H](C)[C@@H](O[C@@H]2O[C@H](C)C[C@H](N(C)C)[C@H]2O)[C@](C)(O)C[C@@H](C)C(=O)[C@H](C)[C@@H](O)[C@]1(C)O [E, erythromycin]
- diameter of the inhibition zone, SA [3]: 24 mm
- diameter of the inhibition zone, BS [6]: 22 mm
- diameter of the inhibition zone, EC [9]: 30 mm
